The structures appear in SMILES notation.
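Also: ALL cell lines in 384-well plates, five doses spanning 10,000-fold, each plate scaled between vehicle and 100 µmol/L benzalkonium chloride controls, sDSS an adapted area-under-curve metric.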

The first test has as its system LC4-1. In words: selective drug sensitivity score (sDSS, relative to normal bone marrow) (sDSS (score)); higher = more potent and effective on the cell line relative to normal bone marrow cells. The following applies: 72 h.
Take `CCOC(=O)CCNc1cc(N2CCc3ccccc3CC2)nc(-c2ccccn2)n1` [GSK-J4] (top concentration 100000 nM): the “selective drug sensitivity score” value is -9.58.

`Cc1cc(Nc2cc(CN3CCOCC3)c3nc(C)c(Cc4ccc(Cl)cc4F)n3n2)n[nH]1` [Gandotinib] (top concentration 10000 nM): the “selective drug sensitivity score” value was found to be 6.98.

On to `NC(=O)NO` [Hydroxyurea] (top concentration 1000000 nM), for which the “selective drug sensitivity score” value turned out to be 5.26.

Regarding `Cc1ccc(NC(=O)c2ccc(CN3CCN(C)CC3)cc2)cc1Nc1nccc(-c2cccnc2)n1` [Imatinib] (top concentration 10000 nM), the “selective drug sensitivity score” value amounted to 0.36.

For `CC(C)NC[C@@H](C(=O)N1CCN(c2ncnc3c2[C@H](C)C[C@H]3O)CC1)c1ccc(Cl)cc1` [Ipatasertib] (top concentration 10000 nM), the “selective drug sensitivity score” value was -0.6.

As for `CCC(C)n1ncn(-c2ccc(N3CCN(c4ccc(OCC5COC(Cn6cncn6)(c6ccc(Cl)cc6Cl)O5)cc4)CC3)cc2)c1=O` (stereo not given) [Itraconazole] (top concentration 5000 nM), the “selective drug sensitivity score” value was 2.88.

Take `Cc1sc2c(c1C)C(c1ccc(Cl)cc1)=N[C@@H](CC(=O)OC(C)(C)C)c1nnc(C)n1-2` [JQ1] (top concentration 10000 nM): the “selective drug sensitivity score” value came to 5.02.

Consider `CCNC(=O)c1noc(-c2cc(C(C)C)c(O)cc2O)c1-c1ccc(CN2CCOCC2)cc1` [Luminespib] (top concentration 1000 nM), for which the “selective drug sensitivity score” value was -1.4.

Regarding `O=C(c1cccc(Cl)c1F)N1CCN(Cc2cccc(Nc3nccs3)n2)CC1` [MK-8745] (top concentration 10000 nM), the “selective drug sensitivity score” value came out at 11.5.

Consider `Cc1ccc(NC(=O)c2ccc(CN3CCN(C)CC3)cc2)cc1Nc1nc(-c2cccnc2)cs1` [Masitinib] (top concentration 10000 nM), for which the “selective drug sensitivity score” value is -2.18.

Take `CCN(CC)CCCC(C)Nc1c2ccc(Cl)cc2nc2ccc(OC)cc12` (stereo not given) [Mepacrine] (top concentration 50000 nM): the “selective drug sensitivity score” value is -4.

Consider `COc1ccc(-c2ccc3ncc4c(c3c2)n(-c2ccc(N3CCNCC3)c(C(F)(F)F)c2)c(=O)n4C)cn1` [NVP-BGT226] (top concentration 1000 nM), for which the “selective drug sensitivity score” value is 2.22.

For `COc1nc(N)nc2c1ncn2[C@@H]1O[C@H](CO)[C@@H](O)[C@@H]1O` [Nelarabine] (top concentration 10000 nM), the “selective drug sensitivity score” value is -7.22.

As to `Cc1cn(-c2cc(NC(=O)c3ccc(C)c(Nc4nccc(-c5cccnc5)n4)c3)cc(C(F)(F)F)c2)cn1` [Nilotinib] (top concentration 10000 nM), the “selective drug sensitivity score” value came to 9.1.

Consider `NC(=O)c1cccc2cn(-c3ccc(C4CCCNC4)cc3)nc12` (stereo not given) [Niraparib] (top concentration 10000 nM), for which the “selective drug sensitivity score” value turned out to be 3.38.

As to `COc1ccc(C[C@H](NC(=O)[C@H](C)NC(=O)CN2CCOCC2)C(=O)N[C@@H](Cc2ccccc2)C(=O)[C@@]2(C)CO2)cc1` [ONX-0914] (top concentration 10000 nM), the “selective drug sensitivity score” value is -1.2.

In the case of `CC(=O)c1cnc2ccc(-c3cc(Cl)c(O)c(Cl)c3)nc2c1N[C@H]1CC[C@H](CN(C)C)CC1` [OTS167] (top concentration 1000 nM), the “selective drug sensitivity score” value was -3.42.

`COC(=O)C[C@](O)(CCCC(C)(C)O)C(=O)O[C@@H]1C(OC)=C[C@]23CCCN2CCc2cc4c(cc2[C@H]13)OCO4` [Omacetaxine] (top concentration 10000 nM): the “selective drug sensitivity score” value was 1.52.

A further test concerns MHH-CALL-3. Described as above. The settings on record: 72 h.
Turning to `CCOC(=O)CCNc1cc(N2CCc3ccccc3CC2)nc(-c2ccccn2)n1` [GSK-J4] (top concentration 100000 nM), the “selective drug sensitivity score” value is -13.2.

Take `Cc1cc(Nc2cc(CN3CCOCC3)c3nc(C)c(Cc4ccc(Cl)cc4F)n3n2)n[nH]1` [Gandotinib] (top concentration 10000 nM): the “selective drug sensitivity score” value came out at 1.18.

Turning to `NC(=O)NO` [Hydroxyurea] (top concentration 1000000 nM), the “selective drug sensitivity score” value is -4.44.

Regarding `Cc1ccc(NC(=O)c2ccc(CN3CCN(C)CC3)cc2)cc1Nc1nccc(-c2cccnc2)n1` [Imatinib] (top concentration 10000 nM), the “selective drug sensitivity score” value was -0.44.

In the case of `CC(C)NC[C@@H](C(=O)N1CCN(c2ncnc3c2[C@H](C)C[C@H]3O)CC1)c1ccc(Cl)cc1` [Ipatasertib] (top concentration 10000 nM), the “selective drug sensitivity score” value amounted to 0.2.

On to `CCC(C)n1ncn(-c2ccc(N3CCN(c4ccc(OCC5COC(Cn6cncn6)(c6ccc(Cl)cc6Cl)O5)cc4)CC3)cc2)c1=O` (stereo not given) [Itraconazole] (top concentration 5000 nM), for which the “selective drug sensitivity score” value was -4.32.

As for `Cc1sc2c(c1C)C(c1ccc(Cl)cc1)=N[C@@H](CC(=O)OC(C)(C)C)c1nnc(C)n1-2` [JQ1] (top concentration 10000 nM), the “selective drug sensitivity score” value is 16.

On to `CCNC(=O)c1noc(-c2cc(C(C)C)c(O)cc2O)c1-c1ccc(CN2CCOCC2)cc1` [Luminespib] (top concentration 1000 nM), for which the “selective drug sensitivity score” value worked out at 8.3.

As to `O=C(c1cccc(Cl)c1F)N1CCN(Cc2cccc(Nc3nccs3)n2)CC1` [MK-8745] (top concentration 10000 nM), the “selective drug sensitivity score” value is 7.1.

As for `Cc1ccc(NC(=O)c2ccc(CN3CCN(C)CC3)cc2)cc1Nc1nc(-c2cccnc2)cs1` [Masitinib] (top concentration 10000 nM), the “selective drug sensitivity score” value was -4.38.

As for `CCN(CC)CCCC(C)Nc1c2ccc(Cl)cc2nc2ccc(OC)cc12` (stereo not given) [Mepacrine] (top concentration 50000 nM), the “selective drug sensitivity score” value is -1.2.

In the case of `COc1ccc(-c2ccc3ncc4c(c3c2)n(-c2ccc(N3CCNCC3)c(C(F)(F)F)c2)c(=O)n4C)cn1` [NVP-BGT226] (top concentration 1000 nM), the “selective drug sensitivity score” value came to 0.62.

In the case of `COc1nc(N)nc2c1ncn2[C@@H]1O[C@H](CO)[C@@H](O)[C@@H]1O` [Nelarabine] (top concentration 10000 nM), the “selective drug sensitivity score” value was -3.72.

For the molecule `Cc1cn(-c2cc(NC(=O)c3ccc(C)c(Nc4nccc(-c5cccnc5)n4)c3)cc(C(F)(F)F)c2)cn1` [Nilotinib] (top concentration 10000 nM), the “selective drug sensitivity score” value came to 0.5.

Consider `NC(=O)c1cccc2cn(-c3ccc(C4CCCNC4)cc3)nc12` (stereo not given) [Niraparib] (top concentration 10000 nM), for which the “selective drug sensitivity score” value came to 10.7.

On to `COc1ccc(C[C@H](NC(=O)[C@H](C)NC(=O)CN2CCOCC2)C(=O)N[C@@H](Cc2ccccc2)C(=O)[C@@]2(C)CO2)cc1` [ONX-0914] (top concentration 10000 nM), for which the “selective drug sensitivity score” value amounted to 7.2.

With `CC(=O)c1cnc2ccc(-c3cc(Cl)c(O)c(Cl)c3)nc2c1N[C@H]1CC[C@H](CN(C)C)CC1` [OTS167] (top concentration 1000 nM), the “selective drug sensitivity score” value is -1.02.

As for `COC(=O)C[C@](O)(CCCC(C)(C)O)C(=O)O[C@@H]1C(OC)=C[C@]23CCCN2CCc2cc4c(cc2[C@H]13)OCO4` [Omacetaxine] (top concentration 10000 nM), the “selective drug sensitivity score” value worked out at 15.6.

In the next test the test system is MOLT-4. The test is described as above. The settings on record: 72 h.
On to `CCOC(=O)CCNc1cc(N2CCc3ccccc3CC2)nc(-c2ccccn2)n1` [GSK-J4] (top concentration 100000 nM), for which the “selective drug sensitivity score” value is -7.98.

With `Cc1cc(Nc2cc(CN3CCOCC3)c3nc(C)c(Cc4ccc(Cl)cc4F)n3n2)n[nH]1` [Gandotinib] (top concentration 10000 nM), the “selective drug sensitivity score” value turned out to be 4.88.

As to `NC(=O)NO` [Hydroxyurea] (top concentration 1000000 nM), the “selective drug sensitivity score” value was 1.56.

Regarding `Cc1ccc(NC(=O)c2ccc(CN3CCN(C)CC3)cc2)cc1Nc1nccc(-c2cccnc2)n1` [Imatinib] (top concentration 10000 nM), the “selective drug sensitivity score” value was -0.34.

With `CC(C)NC[C@@H](C(=O)N1CCN(c2ncnc3c2[C@H](C)C[C@H]3O)CC1)c1ccc(Cl)cc1` [Ipatasertib] (top concentration 10000 nM), the “selective drug sensitivity score” value was 7.1.

Consider `CCC(C)n1ncn(-c2ccc(N3CCN(c4ccc(OCC5COC(Cn6cncn6)(c6ccc(Cl)cc6Cl)O5)cc4)CC3)cc2)c1=O` (stereo not given) [Itraconazole] (top concentration 5000 nM), for which the “selective drug sensitivity score” value is -1.92.

On to `Cc1sc2c(c1C)C(c1ccc(Cl)cc1)=N[C@@H](CC(=O)OC(C)(C)C)c1nnc(C)n1-2` [JQ1] (top concentration 10000 nM), for which the “selective drug sensitivity score” value was -4.28.

Take `CCNC(=O)c1noc(-c2cc(C(C)C)c(O)cc2O)c1-c1ccc(CN2CCOCC2)cc1` [Luminespib] (top concentration 1000 nM): the “selective drug sensitivity score” value was -1.1.

Consider `O=C(c1cccc(Cl)c1F)N1CCN(Cc2cccc(Nc3nccs3)n2)CC1` [MK-8745] (top concentration 10000 nM), for which the “selective drug sensitivity score” value stood at 11.8.

For the origin of these results see the supplement of paper PMC8967900.
